Laboratory results as given in ChEMBL document CHEMBL5523759, “Discovery of Novel HDAC3 Inhibitors with PD-L1 Downregulating/Degrading and Antitumor Immune Effects” (J Med Chem, 2024).
pIC50: −log10 of the molar value. Active and inactive are the calls of the source. No cut-off for these calls is given here.

What was measured:
[1] = system: B16-F10; experiment: Induction of cell cycle arrest in mouse B16-F10 cells assessed as accumulation of cells at G0/G1 phase measured for 48 hrs by flow cytometry analysis; type: functional, cell-based; settings: dose 0.5-4 µM
[2] = target: T1, Histone deacetylase 7 (Homo sapiens, UniProt Q8WUI4); experiment: Inhibition of human recombinant HDAC7 using Ac-Leu-Gly-Lys (Tfa)-AMC as substrate preincubated with compound for 10 mins followed by substrate addition and measured after 45 mins by TECAN microtiter plate reader analysis
T1 sequence (Q8WUI4 whole entry): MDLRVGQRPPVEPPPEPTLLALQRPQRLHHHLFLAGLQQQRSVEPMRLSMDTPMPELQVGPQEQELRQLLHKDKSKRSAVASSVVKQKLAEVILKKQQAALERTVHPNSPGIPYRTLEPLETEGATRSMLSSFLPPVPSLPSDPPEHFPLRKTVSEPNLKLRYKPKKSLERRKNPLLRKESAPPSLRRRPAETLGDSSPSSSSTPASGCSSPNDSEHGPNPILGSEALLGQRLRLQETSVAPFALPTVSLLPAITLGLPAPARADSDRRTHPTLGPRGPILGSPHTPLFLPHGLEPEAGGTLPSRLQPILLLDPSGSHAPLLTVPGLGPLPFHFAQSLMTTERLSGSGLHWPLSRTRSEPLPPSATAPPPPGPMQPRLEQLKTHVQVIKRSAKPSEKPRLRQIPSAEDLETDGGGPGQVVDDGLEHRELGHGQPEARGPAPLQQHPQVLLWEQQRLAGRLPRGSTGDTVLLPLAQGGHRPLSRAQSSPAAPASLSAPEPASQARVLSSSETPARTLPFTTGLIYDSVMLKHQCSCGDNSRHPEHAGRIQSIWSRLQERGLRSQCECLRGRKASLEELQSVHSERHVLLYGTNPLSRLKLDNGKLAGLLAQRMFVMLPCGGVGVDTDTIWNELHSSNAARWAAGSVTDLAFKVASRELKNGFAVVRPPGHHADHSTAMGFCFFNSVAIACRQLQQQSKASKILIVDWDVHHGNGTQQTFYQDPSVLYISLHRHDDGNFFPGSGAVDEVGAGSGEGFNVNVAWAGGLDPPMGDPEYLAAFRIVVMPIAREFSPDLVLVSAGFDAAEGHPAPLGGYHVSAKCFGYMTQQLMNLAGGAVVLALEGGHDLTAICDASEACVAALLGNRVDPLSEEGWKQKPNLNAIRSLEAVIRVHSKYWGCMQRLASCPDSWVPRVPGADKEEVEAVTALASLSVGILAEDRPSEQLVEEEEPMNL

[3] = system: Daudi; experiment: Antiproliferative activity against human Daudi cells assessed as reduction in cell viability measured for 48 hrs by MTT assay; type: functional, cell-based
[4] = system: B16-F10; experiment: Induction of apoptosis in mouse B16-F10 cells at 8 uM measured for 48 hrs by Annexin-V/FITC staining based flow cytometry analysis relative to control; type: functional
[5] = target: T2, Protein deacetylase HDAC6 (Homo sapiens, UniProt Q9UBN7); experiment: Inhibition of human recombinant HDAC6 using Ac-Leu-Gly-Lys (Ac)-AMC as substrate preincubated with compound for 10 mins followed by substrate addition and measured after 45 mins by TECAN microtiter plate reader analysis
T2 sequence (Q9UBN7 whole entry): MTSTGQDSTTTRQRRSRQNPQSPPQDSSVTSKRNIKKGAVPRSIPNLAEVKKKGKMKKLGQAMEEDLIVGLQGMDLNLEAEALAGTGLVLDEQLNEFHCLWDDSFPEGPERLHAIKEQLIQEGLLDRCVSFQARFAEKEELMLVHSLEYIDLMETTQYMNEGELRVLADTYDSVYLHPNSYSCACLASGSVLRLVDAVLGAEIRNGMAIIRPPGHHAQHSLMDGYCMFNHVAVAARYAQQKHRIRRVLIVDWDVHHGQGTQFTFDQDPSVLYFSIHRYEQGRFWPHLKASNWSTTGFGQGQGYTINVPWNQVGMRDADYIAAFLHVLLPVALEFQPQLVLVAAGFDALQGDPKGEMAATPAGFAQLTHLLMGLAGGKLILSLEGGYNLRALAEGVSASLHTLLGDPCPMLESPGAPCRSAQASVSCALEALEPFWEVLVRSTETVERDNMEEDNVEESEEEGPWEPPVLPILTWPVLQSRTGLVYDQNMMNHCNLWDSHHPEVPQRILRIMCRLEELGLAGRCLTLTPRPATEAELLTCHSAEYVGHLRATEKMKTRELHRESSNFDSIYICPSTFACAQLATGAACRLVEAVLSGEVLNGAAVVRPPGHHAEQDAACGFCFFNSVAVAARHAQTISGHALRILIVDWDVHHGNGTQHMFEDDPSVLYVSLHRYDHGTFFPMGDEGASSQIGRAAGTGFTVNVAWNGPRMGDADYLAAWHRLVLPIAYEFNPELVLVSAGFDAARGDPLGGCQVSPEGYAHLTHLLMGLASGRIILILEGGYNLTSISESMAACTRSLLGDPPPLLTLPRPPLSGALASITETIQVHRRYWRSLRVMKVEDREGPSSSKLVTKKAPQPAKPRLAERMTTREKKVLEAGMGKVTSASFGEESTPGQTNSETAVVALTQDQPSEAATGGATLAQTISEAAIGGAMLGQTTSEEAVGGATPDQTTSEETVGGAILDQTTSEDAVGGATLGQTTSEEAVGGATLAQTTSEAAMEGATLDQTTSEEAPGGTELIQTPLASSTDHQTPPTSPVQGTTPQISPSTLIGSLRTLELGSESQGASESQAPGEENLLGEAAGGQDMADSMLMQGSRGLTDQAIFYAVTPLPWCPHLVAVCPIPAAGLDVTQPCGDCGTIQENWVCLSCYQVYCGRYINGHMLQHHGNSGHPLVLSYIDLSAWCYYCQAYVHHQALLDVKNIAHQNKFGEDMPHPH

[6] = system: B16-F10; experiment: Cytotoxicity against mouse B16-F10 cells assessed as increase in dead cells at 0.5 to 8 uM measured for 48 hrs by calcein-AM/propidium iodide staining based analysis; type: functional, cell-based; settings: dose 0.5-8 µM
[7] = target: T3, Histone deacetylase 8 (Mus musculus) (UniProt Q8VH37); experiment: Inhibition of HDAC8 in mouse B16-F10 cells assessed as effect on acetylated SMC3 level at 1 to 2 uM measured for 24 hrs by Western blot analysis; type: cell-based; settings: dose 1-2 µM
T3 sequence (whole entry): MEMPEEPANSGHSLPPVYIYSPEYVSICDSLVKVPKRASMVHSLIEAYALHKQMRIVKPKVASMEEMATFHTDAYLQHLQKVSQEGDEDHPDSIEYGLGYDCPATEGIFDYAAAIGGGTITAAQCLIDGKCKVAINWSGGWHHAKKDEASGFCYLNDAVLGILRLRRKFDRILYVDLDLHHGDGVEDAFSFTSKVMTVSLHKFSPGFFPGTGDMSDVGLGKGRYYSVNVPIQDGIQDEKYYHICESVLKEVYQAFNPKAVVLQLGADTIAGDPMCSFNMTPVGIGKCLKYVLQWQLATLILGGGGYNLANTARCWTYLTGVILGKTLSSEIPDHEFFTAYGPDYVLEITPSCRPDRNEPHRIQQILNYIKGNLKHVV

[8] = system: Raji; experiment: Antiproliferative activity against human Raji cells assessed as reduction in cell viability measured for 48 hrs by MTT assay; type: functional, cell-based

SMILES | Activity [1] | pIC50 [2] | Activity [3] | Activity [4] [%] | pIC50 [5] | Activity [6] | inhibition [7] | Activity [8]
Nc1ccccc1NC(=O)c1ccc(-c2ncc(CNc3ccccc3)s2)cc1 | Dose-Dependent Effect | < 5.00 | Active | 29.59 | < 5.00 | Active | inactive | Active
CCCNNC(=O)c1ccc(CNC(=O)c2ncc(CNc3ccccc3)s2)cc1 | Dose-Dependent Effect | < 5.00 | Active | 71.07 | < 5.00 | Active | inactive | Active
